The results in this text go back to US20070161542A1, “Ptb1b photoprobes” (priority 2003, published 2007).

In one data set the target is T1, purified Flag-PTP1B (Homo sapiens, UniProt P18031).
T1 construct: Flag-PTP1B (residues 1-320 as a flag fusion); made in house
T1 sequence (P18031 1-320): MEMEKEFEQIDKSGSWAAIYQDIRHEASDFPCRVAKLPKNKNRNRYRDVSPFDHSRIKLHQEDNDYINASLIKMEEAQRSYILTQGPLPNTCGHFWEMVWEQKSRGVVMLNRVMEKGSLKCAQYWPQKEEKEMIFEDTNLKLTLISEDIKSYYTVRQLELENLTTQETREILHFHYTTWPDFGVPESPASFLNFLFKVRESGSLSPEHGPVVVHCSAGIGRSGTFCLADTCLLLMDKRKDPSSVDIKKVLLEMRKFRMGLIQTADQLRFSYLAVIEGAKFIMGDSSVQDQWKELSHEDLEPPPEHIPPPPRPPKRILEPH
Kind of data set: Photolabeling of purified enzyme using radioactive photoprobes. The class given is binding. As to the method: (§1) All photolabeling experiments with purified enzymes or SF9 cell lysate overexpressing PTP1B were conducted in 96-well polystyrene plates in 50 μl BisTris buffer (50 mM BisTris pH 6.3, 2 mM EDTA, 1 mM DMH) containing enzyme (in BisTris buffer with 20% glycerol, 0.01% Triton X-100) or lysate and Example 9 (in water) or Example 1 (in water) at various concentrations and shaken for 1 min at room temperature. For competition studies, BzN-EJJ-AMIDE at various concentrations was added prior to the addition of the probes. The samples were then placed on ice for 5 min and irradiated with the 40 watt lamp at the standard 10 cm distance for 15 minutes. […] Autoradiography of the dried, coommassie-stained gel was done using Phosphorimaging (Molecular Devices) or by x-ray film (BioMax MS with intensifier screen, Kodak) and quantified by densitometry.
To study the labeling of PTP1B under physiological concentrations that exist in cells and tissues, ^125I -radiolabeled versions of Examples 9 and 1 were synthesized. […] The labeled enzyme was detected by phosphorimage (Molecular Devices) or x-ray film (BioMax MS with intensifier screen) from a SDS-PAGE gel after electrophoresis. From a titration of the purified PTP1B and probe, a detection limit for the two probes of Examples 9 and 1 were determined to be about 5 and 0.2 nM respectively, as detected by phosphorimaging. […]

The target in data set [1] is T2, full-length PTP1B in SF9 lysate (Homo sapiens, UniProt P18031).
T2 construct: Infected SF9 cell lysate expressing full-length PTP1B (as a flag fusion); made in house; host or cells: SF9 insect cells (infected), used as crude lysate
T2 sequence (P18031 1-435): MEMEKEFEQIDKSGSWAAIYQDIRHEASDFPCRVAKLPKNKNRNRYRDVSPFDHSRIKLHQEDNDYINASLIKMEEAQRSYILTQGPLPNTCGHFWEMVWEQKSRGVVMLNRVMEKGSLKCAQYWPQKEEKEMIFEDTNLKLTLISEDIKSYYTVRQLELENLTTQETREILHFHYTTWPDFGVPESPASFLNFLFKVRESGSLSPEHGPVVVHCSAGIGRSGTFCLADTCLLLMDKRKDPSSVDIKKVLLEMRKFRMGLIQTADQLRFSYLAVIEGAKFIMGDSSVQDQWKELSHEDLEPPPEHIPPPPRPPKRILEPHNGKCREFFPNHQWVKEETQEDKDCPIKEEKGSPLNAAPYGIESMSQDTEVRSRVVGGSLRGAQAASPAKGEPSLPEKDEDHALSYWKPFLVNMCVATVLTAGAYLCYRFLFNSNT
The data set is described as follows: Photolabeling of SF9 cell lysate overexpressing PTP1B. To be noted: PTP1B 1% wt/wt protein. In kind it is binding.
Excerpt: Protein tyrosine phosphatases used in this study were expressed and purified using published procedures, as follows: (a) Flag-PTP1B (residues 1-320 as a flag fusion), Huyer et al. (29). (b) Flag-TCPTP (residues 1-281 as a flag fusion), Asante-Appiah et al. (30). (c) Flag-CD45 (residues 556-1268 as a flag fusion), Wang et al. (31). (d) Mutant C215S-PTP1B (residues 1-320 as a gst fusion), Skorey et al. (28). (e) Infected SF9 cell lysate expressing full-length PTP1B (as a flag fusion), Cromlish et al. (25). For studies using H2O2-inactivated Flag-PTP1B, 100 μl of 2 μg/ml PTP1B was incubated with 100 μl of 1 mM or 20 mM H2O2 for 15 min to obtain 50% or 100% inactivated enzyme respectively as determined by the enzyme kinetic assay.
as §1, with “temperature.” for “temperature. For competition studies, BzN-EJJ-AMIDE at various concentrations was added prior to the addition of the probes. The samples were then placed on ice for 5 min and irradiated with the 40 watt lamp at the standard 10 cm distance for 15 minutes.”, “densitometry. […]” for “densitometry.”

A short description of data set [2]: Photolysis of the probes in water (time course, quantum yield). The class given is physicochemical. To be noted: chemical actinometry; absorbance at 345 and 350 nm for Examples 9 and 1. The method, then: A time course for photolysis of the probes in water was determined by measuring product formation by HPLC-MS. […] Based on the time course of photolysis of an aqueous probe with a 40 W lamp, t1/2 values of about 2 min were measured using the 40 W lamp. When a 450 W lamp was used, the t1/2 was reduced to less than 30 sec.
The quantum yield of the photoprobes was determined from the number of photons absorbed and the number of moles of photolysis product that were formed. The number of photons absorbed was determined by chemical actinometry, using the method of Parker (26). The moles of irradiated product produced over time was measured by measuring the absorbance at 345 and 350 nm for Examples 9 and 1 respectively. The quantum yield was calculated to be 0.83 and 0.74 for Examples 9 and 1 respectively.

The structures appear in SMILES notation.

On to `NC(=O)[C@H](Cc1ccc(C(F)(F)P(=O)(O)O)cc1)NC(=O)[C@H](Cc1ccc(C(F)(F)P(=O)(O)O)cc1)NC(=O)c1cc(I)cc(C2(C(F)(F)F)N=N2)c1` [Example 9, 4-(Difluoro(phosphono)methyl)-N-(3-iodo-5-(3-(trifluoromethyl)-3H-diaziren-3-yl)benzoyl)-L-phenylalanyl-4-(difluoro(phosphono)methyl)-L-phenylalaninamide], for which the efficiency of labeling on purified Flag-PTP1B (7 nM probe, purified Flag-PTP1B, vs probe alone after gel electrophoresis) is listed as 9%. The “detection limit of labeled PTP1B” value on purified Flag-PTP1B (125I-radiolabeled probe, purified PTP1B, phosphorimaging) is listed as “about 5 nM”. For the same compound, the “labeling of SF9 overexpressed PTP1B” value in data set [1] is on record as “labeled SF9 overexpressed PTP1B”. Besides, in data set [2], the quantum yield was 0.83.
